Where two headings read alike, the source gives them in different places.
Legend:
[1] = system: monoclonal antibody P3 6D4; experiment: Kinetics and inhibition of catalytic ester hydrolysis by monoclonal antibody P3 6D4, spectrophotometric at 245 nm; type: biochemical, mouse
Procedure: FIG. 4 illustrates a Lineweaver-Burk plot for the hydrolysis of Compound 7 by anti-Compound 4 monoclonal antibody from hybridoma P3 6D4. Velocities were determined spectrophotometrically by measuring initial rates during the first linear portion of the reaction as described with reference to Table 2. The substrate concentrations were corrected for amounts consumed during initial equilibration. ( ) No inhibitor present. ( ) Inhibited by 50 nM phosphonate (Compound 3). ( ) Inhibited by 100 nM phosphonate (Compound 3).
In particular, an exemplary monoclonal receptor was produced by the standard hybridoma technology of Kohler et al., Nature, 256, 495 (1975). Specifically, female 129G1X^+ mice were immunized by intraperitoneal injection with an inoculum of 100 micrograms of conjugate (e.g., Compound 4i bound to KLH) in 300 microliters of a 1:1 mixture of phosphate buffered saline (PBS) pH 7.4 and complete Freund's adjuvant. Two weeks later, the mice were again injected in a like manner with 50 micrograms of the foregoing conjugate in 300 microliters of a 1:1 mixture of PBS (pH 7.4) and 10 mg/ml alum. After an additional eight weeks, the mice were immunized intravenously with 50 micrograms of the conjugate in 200 microliters of PBS (pH 7.4). The spleens were removed from the mice 4 days later, and the spleen cells were fused to myeloma cells.
Reaction kinetics were measured spectrophotometrically by following the absorption change at 245 nanometers. […] Kinetic parameters obtained with these substrates are shown in Table 2 along with the inhibition constants obtained with phosphonate (Compound 3). Under these conditions, the acceleration above the background rate is about 960-fold for Compound 7 and about 200-fold for Compound 8 (corrected for the background hydrolysis rate).
*The kinetic parameters shown in Table 2 are for the hydrolysis of esters
(Compounds 7 and 8) by monoclonal antibody P3 6D4. A PerkinElmer lambda 4
spectrophotometer, equipped with thermostatted cell holder, was used to
measure absorption changes at 245 nm. Cells containing the substrate at
concentrations of 0.5 to 50 micromolar in phosphate buffer (50 mM, pH 8.0
were preequilibrated at 25 degrees C. The concentration of active IgG in
stock solution was found by reacting with the coumarin ester (Compound 5)
and measuring the yield of hydroxycoumarin by fluorescence. The kinetic
run was initiated by addition of an aliquot of the antibody stock solutio
(in 50 mM phosphate buffer, pH 8.0) calculated to give 100 nM IgG. The
mixture was allowed to equilibrate for 2 to 3 minutes and the rate was
then measured during the subsequent 10 minutes. The absorption change for
complete hydrolysis was determined by treatment with esterase. Kinetic
parameters were obtained from L ineweaverBurk plots (see FIG. 4).
Inhibition constants were determined from a plot of the slopes with at
least four inhibitor concentrations of Compound 3. The data were analyzed

[2] = system: monoclonal receptor P3 6D4; experiment: Stoichiometric transacylation reaction of monoclonal receptor P3 6D4 with coumarin ester Compound 5 (fluorescence) and its inhibition/inactivation; type: biochemical, mouse
Procedure: A Perkin-Elmer LS-5 fluorescence spectrometer was operated at a fixed wavelength, using 355 nanometers (nm) for excitation and measuring the emission at 455 nm. A stock solution of the coumarin ester 5 was prepared in dioxane and was diluted to the desired concentrations in Tris-HCl (50 mM, pH 7) or sodium phosphate (50 mM, pH 4-9).
Reactions were run at 23 degrees C and were initiated by the addition of an aliquot of antibody solution (1 mg/ml) to substrate solutions to provide a final protein concentration of 100 nM. Final fluorescence values were determined by hydrolysis of the substrate with pig liver esterase. The observed reaction rate was corrected for spontaneous hydrolysis. Reaction kinetics were studied by measuring initial rates under pseudo-first order conditions. Active protein concentration was extrapolated from fluorescence values at the end of the reaction. The kinetic parameters were obtained by fitting the data to a hyperbolic curve and from double reciprocal plots. Inhibition constants were determined from the Lineweaver-Burk plot data with at least five inhibitor concentrations. All the data were studied by a least squares analysis.
Antibody preparations were inactivated without introducing fluorescent products by the addition of the activated ester (Compound 8) in dioxane to a solution of the IgG (5 mg/ml) in Tris-HCl (50 mM, pH 6.5) at a ratio of 5 moles of the ester (Compound 8) per mole IgG.
Protein modification was performed in an analogous manner, by the addition of a dioxane solution of the reagent at a known concentration to the antibody. The solution was incubated for 30 minutes before filtration through Sephadex G-25. The activity remaining was compared to control samples. Aliquots of IgG (5 mg/ml) inactivated with the ester (Compound 8) were diluted with four volumes of phosphate buffer (50 mM, pH 4-9, at intervals of 1 pH unit). Any pH change was recorded, and the sample was stored at 4 degrees C for 24 hours.
Initially, the ester was used at a concentration that was about four-fold greater than that of the protein, and the mixture was incubated at pH 7.2 for 10 minutes. Any change in fluorescence above background was noted.
The termination of the reaction is noted by the return of the rate of fluorescence increase to the background level.

effect of additive on antibody-enhanced esterolysis of Compound 5 ([2]; up to 100 micromolar added zinc and picolinic acid, EDTA concentration not given) | Compound | effect of additive on rate of reaction of Compound 7 with antibody ([1]; picolinic acid alone or picolinic acid and zinc chloride) | Ki ([1]; substrate Compound 7, read-out: inhibition constant ki, catalytic reaction with Compound 7) [nM] | Ki ([2]; substrate Compound 5, estimated, read-out: inhibition constant, stoichiometric reaction with Compound 5) [nM] | Ki ([2]; summary, kinetic parameters at low pH values, read-out: Ki (inhibition of antibody esterolysis)) [nM]
No effect | O=C(O)c1ccccn1 [picolinic acid, reference compound] | no effect |  |  | 
 | CC(=O)Nc1ccc(OP(=O)(O)Cc2ccc(NC(=O)C(F)(F)F)cc2)c(CNC(=O)c2cccc(C(=O)O)n2)c1 [Compound 3i] |  | 160 | 35 | 35

Source: patent US5126258A (priority 1988, dated 1992)
